# Reference: patent US20060263448A1, “Use of extracts from roots of pelargonium sidoides and pelargonium reniforme” (priority 2004, published 2006)
# Tested on: Mycobacterium ranae
# Assay: Assay on anti-mycobacterial activity (suspension dilution method)
# Type: cell-based
# Conditions: M. ranae, 48 h at 37° C., visual evaluation of growth inhibition
# Procedure: To assay the anti-mycobacterial efficacy, Mycobacterium ranae that represents a non-human pathogenic mycobacterium having a similar sensitivity against chemotherapeutic agents like M. tuberculosis was used. The suspension dilution method was used to determine the minimal inhibitory concentration (MHC). The extract of Pelargonium sidoides was solved in DMSO and serially diluted to obtain the required concentrations. Pelargonium extract or the solvent was added in a volume of 10 μl to 48-well microtiter plates containing 990 μl of an M. ranae suspension (ATCC 10) in a concentration of 1-5×10^5 CFU/ml Brain-Heart Infusion Broth (Difco, USA) per well. The maximum concentration of the solvent (DMSO) was 1%. Pelargonium extract was tested at concentrations between 100 and 0.03 μg/ml. All tests were carried out twice. The plates were incubated for 48 h at 37° C. and then the inhibition of the growth of the bacteria was evaluated visually.
substance,measurement,value
Gentamicin,minimal inhibitory concentration (MHC),0.3 µg/mL
